Source: ChEMBL document CHEMBL1201862, “PubChem BioAssay data set” (2004)
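Tested at 5 concentrations; 48 h exposure; 96-well plates; endpoints linearly interpolated, else capped at highest concentration. Abbreviation: GI50, concentration required for 50% inhibition of growth.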 Activity calls are given as the source filed them. No stated cut-off is given here; in the data, active = GI50 up to about 1.1 µM and inactive = higher.

What was measured:
Experiment in all cases: NCI-60 cell line screen, 48 h
OVCAR-8 = system: OVCAR-8
MDA-MB-435 = system: MDA-MB-435
K562 = system: K562
SK-MEL-2 = system: SK-MEL-2
LOX IMVI = system: LOX IMVI
SK-MEL-5 = system: SK-MEL-5
COLO 205 = system: COLO 205
UACC-62 = system: UACC-62
TK-10 = system: TK-10
SK-OV-3 = system: SK-OV-3
DLD-1 = system: DLD-1
UACC-257 = system: UACC-257
HT-29 = system: HT-29
SW-620 = system: SW-620
MOLT-4 = system: MOLT-4
EKVX = system: EKVX
A498 = system: A498
ACHN = system: ACHN
RXF 393 = system: RXF 393
NCI-H23 = system: NCI-H23
KM-20L2 = system: KM-20L2
SNB-75 = system: SNB-75
HOP-62 = system: HOP-62
Malme-3M = system: Malme-3M
SF-295 = system: SF-295
SNB-78 = system: SNB-78
OVCAR-5 = system: OVCAR-5
SF-268 = system: SF-268
IGROV-1 = system: IGROV-1
HOP-18 = system: HOP-18
DMS-114 = system: DMS-114
CAKI-1 = system: CAKI-1
NCI-H226 = system: NCI-H226
CCRF-CEM = system: CCRF-CEM
RPMI-8226 = system: RPMI-8226
XF498 = system: XF498
KM12 = system: KM12
786-0 = system: 786-0
OVCAR-4 = system: OVCAR-4
HL-60 = system: HL-60
DMS-273 = system: DMS-273
MDA-N = system: MDA-N
MDA-MB-231 = system: MDA-MB-231
U-251 = system: U-251
HCT-116 = system: HCT-116
Hs-578T = system: Hs-578T
DU-145 = system: DU-145
HCT-15 = system: HCT-15
M14 = system: M14
SK-MEL-28 = system: SK-MEL-28
OVCAR-3 = system: OVCAR-3
SF-539 = system: SF-539
SR = system: SR
SNB-19 = system: SNB-19
A549 = system: A549
LXFL 529 = system: LXFL 529
HOP-92 = system: HOP-92
MCF7 = system: MCF7
SN12C = system: SN12C
HCC 2998 = system: HCC 2998
NCI-H522 = system: NCI-H522
NCI-H460 = system: NCI-H460
M19-MEL = system: M19-MEL
NCI/ADR-RES = system: NCI/ADR-RES
UO-31 = system: UO-31
T47D = system: T47D
RXF 631 = system: RXF 631

Compound: NC(=O)C(=O)n1ncc(Cl)c(Cl)c1=O
- GI50 (OVCAR-8): 24.2 µM (inactive)
- GI50 (MDA-MB-435): > 100 µM (inactive)
- GI50 (K562): 9.46 µM (inactive)
- GI50 (SK-MEL-2): 23.8 µM (inactive)
- GI50 (LOX IMVI): 22.4 µM (inactive)
- GI50 (SK-MEL-5): 18.3 µM (inactive)
- GI50 (COLO 205): > 32.9 µM (inactive)
- GI50 (UACC-62): 31.5 µM (inactive)
- GI50 (TK-10): 31.8 µM (inactive)
- GI50 (SK-OV-3): > 100 µM (inactive)
- GI50 (DLD-1): 15.3 µM (inactive)
- GI50 (UACC-257): 34 µM (inactive)
- GI50 (HT-29): 27.5 µM (inactive)
- GI50 (SW-620): 13.3 µM (inactive)
- GI50 (MOLT-4): 3.59 µM (inactive)
- GI50 (EKVX): 39.2 µM (inactive)
- GI50 (A498): > 72.9 µM (inactive)
- GI50 (ACHN): 24.4 µM (inactive)
- GI50 (RXF 393): > 23.5 µM (inactive)
- GI50 (NCI-H23): 32.7 µM (inactive)
- GI50 (KM-20L2): 28.7 µM (inactive)
- GI50 (SNB-75): > 42.8 µM (inactive)
- GI50 (HOP-62): > 100 µM (inactive)
- GI50 (Malme-3M): 17.5 µM (inactive)
- GI50 (SF-295): 13.6 µM (inactive)
- GI50 (SNB-78): 20.3 µM (inactive)
- GI50 (OVCAR-5): 37.5 µM (inactive)
- GI50 (SF-268): 46 µM (inactive)
- GI50 (IGROV-1): > 56.6 µM (inactive)
- GI50 (HOP-18): 20 µM (inactive)
- GI50 (DMS-114): 16.9 µM (inactive)
- GI50 (CAKI-1): 22.8 µM (inactive)
- GI50 (NCI-H226): > 69.5 µM (inactive)
- GI50 (CCRF-CEM): 6.03 µM (inactive)
- GI50 (RPMI-8226): 11.7 µM (inactive)
- GI50 (XF498): 17 µM (inactive)
- GI50 (KM12): 34.1 µM (inactive)
- GI50 (786-0): 22.2 µM (inactive)
- GI50 (OVCAR-4): 29.4 µM (inactive)
- GI50 (HL-60): 5.26 µM (inactive)
- GI50 (DMS-273): 25 µM (inactive)
- GI50 (MDA-N): > 100 µM (inactive)
- GI50 (MDA-MB-231): > 10 µM (inactive)
- GI50 (U-251): > 40.7 µM (inactive)
- GI50 (HCT-116): 29.1 µM (inactive)
- GI50 (Hs-578T): > 100 µM (inactive)
- GI50 (DU-145): > 100 µM (inactive)
- GI50 (HCT-15): > 46.9 µM
- GI50 (M14): 28.8 µM (inactive)
- GI50 (SK-MEL-28): 23.5 µM (inactive)
- GI50 (OVCAR-3): 32.2 µM (inactive)
- GI50 (SF-539): 40.2 µM (inactive)
- GI50 (SR): 19.2 µM (inactive)
- GI50 (SNB-19): > 79.3 µM (inactive)
- GI50 (A549): > 67.8 µM (inactive)
- GI50 (LXFL 529): 15.1 µM (inactive)
- GI50 (HOP-92): > 42.3 µM (inactive)
- GI50 (MCF7): 57.3 µM (inactive)
- GI50 (SN12C): 18.6 µM (inactive)
- GI50 (HCC 2998): 25.8 µM (inactive)
- GI50 (NCI-H522): 7.73 µM (inactive)
- GI50 (NCI-H460): 74.8 µM (inactive)
- GI50 (M19-MEL): 24.7 µM (inactive)
- GI50 (NCI/ADR-RES): 24.4 µM (inactive)
- GI50 (UO-31): 32.7 µM (inactive)
- GI50 (T47D): > 100 µM (inactive)

Compound: COC(=O)C1=C(C)C(=O)[C@H]2C(C(=O)OC)CCCC[C@@H]12 (some centres not stated)
- GI50 (OVCAR-8): > 100 µM (inactive)
- GI50 (K562): 55.8 µM (inactive)
- GI50 (SK-MEL-2): > 100 µM (inactive)
- GI50 (SK-MEL-5): 72.9 µM (inactive)
- GI50 (COLO 205): > 100 µM (inactive)
- GI50 (UACC-62): > 100 µM (inactive)
- GI50 (TK-10): > 100 µM (inactive)
- GI50 (SK-OV-3): > 100 µM (inactive)
- GI50 (DLD-1): > 100 µM (inactive)
- GI50 (UACC-257): 45.6 µM (inactive)
- GI50 (HT-29): > 100 µM (inactive)
- GI50 (SW-620): > 100 µM (inactive)
- GI50 (MOLT-4): 54.6 µM (inactive)
- GI50 (EKVX): > 100 µM (inactive)
- GI50 (A498): > 100 µM (inactive)
- GI50 (ACHN): > 100 µM (inactive)
- GI50 (RXF 393): > 100 µM (inactive)
- GI50 (NCI-H23): > 100 µM (inactive)
- GI50 (KM-20L2): > 100 µM (inactive)
- GI50 (SNB-75): > 100 µM (inactive)
- GI50 (HOP-62): > 100 µM (inactive)
- GI50 (Malme-3M): > 100 µM (inactive)
- GI50 (SF-295): > 100 µM (inactive)
- GI50 (SNB-78): > 100 µM (inactive)
- GI50 (OVCAR-5): > 100 µM (inactive)
- GI50 (SF-268): > 100 µM (inactive)
- GI50 (IGROV-1): > 100 µM (inactive)
- GI50 (HOP-18): > 100 µM (inactive)
- GI50 (DMS-114): 20.9 µM (inactive)
- GI50 (CAKI-1): > 100 µM (inactive)
- GI50 (NCI-H226): > 100 µM (inactive)
- GI50 (CCRF-CEM): 40.5 µM (inactive)
- GI50 (RPMI-8226): 66.2 µM (inactive)
- GI50 (XF498): 89.9 µM (inactive)
- GI50 (KM12): > 100 µM (inactive)
- GI50 (786-0): > 100 µM (inactive)
- GI50 (OVCAR-4): > 100 µM (inactive)
- GI50 (HL-60): 30.2 µM (inactive)
- GI50 (DMS-273): 90.2 µM (inactive)
- GI50 (U-251): > 100 µM (inactive)
- GI50 (HCT-116): 83.9 µM (inactive)
- GI50 (HCT-15): > 100 µM
- GI50 (M14): > 100 µM (inactive)
- GI50 (SK-MEL-28): > 100 µM (inactive)
- GI50 (SF-539): > 100 µM (inactive)
- GI50 (SR): 49.1 µM (inactive)
- GI50 (SNB-19): > 100 µM (inactive)
- GI50 (A549): > 100 µM (inactive)
- GI50 (LXFL 529): > 100 µM (inactive)
- GI50 (HOP-92): 32.3 µM (inactive)
- GI50 (SN12C): > 100 µM (inactive)
- GI50 (HCC 2998): > 100 µM (inactive)
- GI50 (NCI-H522): 29.4 µM (inactive)
- GI50 (NCI-H460): > 100 µM (inactive)
- GI50 (M19-MEL): > 100 µM (inactive)
- GI50 (UO-31): > 100 µM (inactive)

Compound: N#CC(C#N)=C1SCC(=O)CS1
- GI50 (OVCAR-8): > 100 µM (inactive)
- GI50 (K562): > 100 µM (inactive)
- GI50 (LOX IMVI): > 100 µM (inactive)
- GI50 (SK-MEL-5): > 100 µM (inactive)
- GI50 (COLO 205): > 100 µM (inactive)
- GI50 (UACC-62): > 100 µM (inactive)
- GI50 (TK-10): > 100 µM (inactive)
- GI50 (SK-OV-3): > 100 µM (inactive)
- GI50 (DLD-1): > 100 µM (inactive)
- GI50 (UACC-257): > 100 µM (inactive)
- GI50 (HT-29): > 100 µM (inactive)
- GI50 (SW-620): > 100 µM (inactive)
- GI50 (MOLT-4): > 100 µM (inactive)
- GI50 (EKVX): > 100 µM (inactive)
- GI50 (A498): > 100 µM (inactive)
- GI50 (RXF 393): > 100 µM (inactive)
- GI50 (NCI-H23): > 100 µM (inactive)
- GI50 (KM-20L2): > 100 µM (inactive)
- GI50 (SNB-75): 89.1 µM (inactive)
- GI50 (HOP-62): > 100 µM (inactive)
- GI50 (Malme-3M): > 100 µM (inactive)
- GI50 (SF-295): > 100 µM (inactive)
- GI50 (SNB-78): > 100 µM (inactive)
- GI50 (OVCAR-5): > 100 µM (inactive)
- GI50 (SF-268): > 100 µM (inactive)
- GI50 (IGROV-1): > 100 µM (inactive)
- GI50 (DMS-114): > 100 µM (inactive)
- GI50 (CAKI-1): > 100 µM (inactive)
- GI50 (NCI-H226): > 100 µM (inactive)
- GI50 (CCRF-CEM): > 100 µM (inactive)
- GI50 (RPMI-8226): > 100 µM (inactive)
- GI50 (XF498): > 100 µM (inactive)
- GI50 (KM12): > 100 µM (inactive)
- GI50 (786-0): > 100 µM (inactive)
- GI50 (OVCAR-4): > 100 µM (inactive)
- GI50 (HL-60): > 100 µM (inactive)
- GI50 (DMS-273): > 100 µM (inactive)
- GI50 (U-251): > 100 µM (inactive)
- GI50 (HCT-116): > 100 µM (inactive)
- GI50 (HCT-15): > 100 µM
- GI50 (M14): > 100 µM (inactive)
- GI50 (OVCAR-3): > 100 µM (inactive)
- GI50 (SF-539): > 100 µM (inactive)
- GI50 (SR): > 100 µM (inactive)
- GI50 (SNB-19): > 100 µM (inactive)
- GI50 (A549): > 100 µM (inactive)
- GI50 (RXF 631): > 100 µM (inactive)
- GI50 (LXFL 529): > 100 µM (inactive)
- GI50 (HOP-92): > 100 µM (inactive)
- GI50 (SN12C): > 100 µM (inactive)
- GI50 (HCC 2998): > 100 µM (inactive)
- GI50 (NCI-H522): > 100 µM (inactive)
- GI50 (NCI-H460): > 100 µM (inactive)
- GI50 (M19-MEL): > 100 µM (inactive)
- GI50 (UO-31): > 100 µM (inactive)
